How the values were obtained:
Format in all cases: in vivo, human
adult patients with MDD [1] = experiment: TAK-316 Trial: change from baseline in MADRS total score, 8 weeks of treatment
Procedure: (§1) Multicenter, randomized, double-blind, parallel-group, placebo-controlled, drug-referenced, fixed-dose studies were conducted to evaluate the efficacy and safety of vortioxetine in the acute treatment of adult patients with MDD. A total of 595 individuals meeting the diagnostic criteria from the DSM-IV-TR for recurrent MDD were included in the studies, TAK-315, -316 and -317. The current major depressive disorder for each individual was confirmed by the Structured Clinical Interview for DSM Disorders (SCID). […] Individuals were treated with 10, 15 or 20 mg vortioxetine, or a different drug, or administered a placebo daily for 8 weeks.
(§2) Subjects were seen weekly during the first 2 weeks of treatment and then every 2 weeks up to the end of the 8-week treatment period. The primary outcome measure was change from baseline in MADRS total score after 8 Weeks of treatment. MADRS is a depression rating scale consisting of 10 items, each rated 0 (no symptom) to 6 (severe symptom). The 10 items represent the core symptoms of depressive illness. The rating is based on a clinical interview with the patient, moving from broadly phrased questions about symptoms to more detailed ones, which allow a precise rating of severity, covering the most recent 7 days. Total score is from 0 to 60, with a higher the score being the more severe. […]

adult patients with MDD [2] = experiment: TAK-315 Trial: change from baseline in MADRS total score, 8 weeks of treatment
Procedure: as §1, §2

adult patients with MDD [3] = experiment: Combined TAK-315 and TAK-316 Trials: predicted MADRS response rate by 24-SNP placebo subgroup
Procedure: as §1
Secondary outcome measures included the proportion of responders at week 8 (responders defined as a 50% decrease in MADRS total score from baseline); a change from baseline in MADRS total score at week 8; and a change in clinical status using CGI-I score at week 8. The CGI-I scale is a 7-point scale rated from 1 (very much improved) to 7 (very much worse). The investigator rated the patient's overall improvement relative to baseline, whether or not, in the opinion of the investigator, this was entirely due to the treatment.
A main effect model was utilized to identify genes or single variants prognostic of response using the placebo samples.
In the placebo arm, the mean response rate in the subgroup [N=125; BM(+)] was 47.33% (CL: 0.38-0.57) and not in the subgroup [N=94; BM(−)] was 15.52% (CL: 0.1-0.25). The subgroup size in the placebo arm was 57.1% [BM(+)] and 42.9% [BM(−)]. […] The placebo subgroup size in the Vortioxetine 20 mg treat arm was 45.9(%) [BM(+), N=89] and 54.1% [BM(−), N=105].
FIG. 8 provides a comparison of the 24 SNP placebo model in the three trials' (TAK-315, 316 & 317) placebo arms and the 20 mg vortioxetine dose in TAK-315 and -316. […] In the placebo arm the mean response rate in the subgroup [N=187; BM(+)] was 46.63% (CL: 0.39-0.55) and not in the subgroup [N=148; BM(−)] was 17.02% (CL: 0.12-0.24). The subgroup size in the placebo arm was 55.8% [BM(+)] and 44.2% [BM(−)]. […] The subgroup size in the Vortioxetine 20 mg treat arm was 45.9% [BM(+), N=89] and 54.1% [BM(−), N=105].

[4] = 20 mg vortioxetine daily, 8 weeks

Compound: Cc1ccc(Sc2ccccc2N2CCNCC2)c(C)c1 [vortioxetine]
- LS mean (SE) change from baseline in MADRS score (adult patients with MDD [1]; [4]): −13.87 (1.63)
- LS mean difference in MADRS change, active vs. placebo BM(+) (adult patients with MDD [1]; 20 mg vortioxetine vs 24-SNP Placebo BM(+) subgroup, SE 2.14): 0.12
- LS mean (SE) change from baseline in MADRS score (adult patients with MDD [2]; [4]): −15.56 (1.67)
- LS mean difference in MADRS change, active vs. placebo BM(+) (adult patients with MDD [2]; 20 mg vortioxetine vs 24-SNP Placebo BM(+) subgroup, SE 2.11): 0.12
- mean response rate (MADRS, LSmean predicted response rate) (adult patients with MDD [3]; Vortioxetine 20 mg arm (TAK-315 and -316), placebo BM(+) subgroup N=89, analysis with TAK-315/316/317 placebo arms (FIG. 8)): 36.00%
- mean response rate (MADRS, LSmean predicted response rate) (adult patients with MDD [3]; Vortioxetine 20 mg arm (TAK-315 and -316), placebo BM(−) subgroup N=105, analysis with TAK-315/316/317 placebo arms (FIG. 8)): 44.0%
- mean response rate (MADRS, LSmean predicted response rate) (adult patients with MDD [3]; Vortioxetine 20 mg arm, placebo BM(+) subgroup N=89, TAK-315/316 analysis (FIG. 6)): 35.96%
- mean response rate (MADRS, LSmean predicted response rate) (adult patients with MDD [3]; Vortioxetine 20 mg arm, placebo BM(−) subgroup N=105, TAK-315/316 analysis (FIG. 6)): 43.0%

From patent publication US20190078161A1, “METHOD FOR IDENTIFYING CLINICAL TRIAL RESPONDERS FROM A PLACEBO GROUP IN MAJOR DEPRESSION” (Tekada Pharmaceutical Company Limited, priority 2016, published 2019)
